# Assay results published in patent US11066414B2, “Cot modulators and methods of use thereof” (Gilead Sciences, Inc., priority 2015, dated 2021).
# Like-named read-outs stand apart in the source and are kept apart here.
# Columns and labels:
# [1] = target: Human Cot (Homo sapiens (Human), UniProt P41279); test: High Throughput Cot Biochemical Assay
# [2] = system: TNFα; test: Cot Monocyte TNFα Cell Based Assay
# [3] = IC50 HTRF, Cot HTRF (TR-FRET) biochemical assay
# [4] = Homo sapiens, Monocyte, read-out: EC50 TNF, LPS-stimulated human monocytes, TNFα
# [5] = IC50 HTRF, Cot HTRF (TR-FRET KinEASE) biochemical assay, 400 μM ATP
# [6] = Homo sapiens, Monocyte, read-out: EC50 TNF, LPS-stimulated human monocytes, TNFα TR-FRET
# Sequence of Human Cot (P41279 30-397): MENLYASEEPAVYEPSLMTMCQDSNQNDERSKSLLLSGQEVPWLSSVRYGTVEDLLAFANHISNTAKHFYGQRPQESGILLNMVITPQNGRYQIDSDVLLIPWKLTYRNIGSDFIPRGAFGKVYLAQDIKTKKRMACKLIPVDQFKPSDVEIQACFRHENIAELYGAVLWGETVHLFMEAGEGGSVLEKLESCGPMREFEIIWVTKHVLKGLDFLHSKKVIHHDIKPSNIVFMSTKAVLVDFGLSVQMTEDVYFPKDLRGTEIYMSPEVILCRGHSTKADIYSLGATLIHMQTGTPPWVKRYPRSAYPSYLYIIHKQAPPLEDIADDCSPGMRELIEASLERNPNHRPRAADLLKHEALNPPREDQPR
SMILES,"IC50 [1, 3] [µM]","EC50 [2, 4] [µM]",other results
"COc1nccc2c([C@H](Nc3cc(C#N)c4ncc(C#N)c(NCC(C)(C)C)c4c3)c3cn(C45CC(C4)C5)nn3)cccc12 [Example 807, (S)-6-(((1-(bicyclo[1.1.1]pentan-1-yl)-1H-1,2,3-triazol-4-yl)(1-methoxylsoquinolin-5-yl)methyl)amino)-4-(neopentylamino)quinoline-3,8-dicarbonitrile]",–,–,"IC50 ([1]; read-out: IC50 HTRF, Cot HTRF (TR-FRET KinEASE) biochemical assay, 400 μM ATP): 0.003 µM; EC50 ([2]; read-out: EC50 TNF, LPS-stimulated human monocytes, TNFα TR-FRET): 0.031 µM"
"CC[C@@H](Nc1c(C#N)cnc2c(Cl)cc(N[C@H](c3cn(C4(C(F)F)CC4)nn3)c3ccc(F)nc3C)cc12)c1ccccc1 [Example 723, 8-chloro-6-(((S)-(1-(1-(difluoromethyl)cyclopropyl)-1H-1,2,3-triazol-4-yl)(6-fluoro-2-methylpyridin-3-yl)methyl)amino)-4-(((R)-1-phenyl-propyl)amino)quinoline-3-carbonitrile]",0.004,0.084,–
"Cc1nc(F)ccc1[C@H](Nc1cc(C#N)c2ncc(C#N)c(NCC(C)(C)C)c2c1)c1cn(CC2(C)CC2)nn1 [Example 866, (S)-6-(((6-fluoro-2-methylpyridin-3-yl)(1-((1-methylcyclopropyl)methyl)-1H-1,2,3-triazol-4-yl)methyl)amino)-4-(neopentylamino)quinoline-3,8-dicarbonitrile]",–,–,"IC50 [1, 5]: 0.002 µM; EC50 [2, 6]: 0.018 µM"
"CCC(F)(F)Cn1cc([C@@H](Nc2cc(C#N)c3ncc(C#N)c(NCC(C)(C)C)c3c2)c2ccc(F)nc2C)nn1 [Example 837, (S)-6-(((1-(2,2-difluorobutyl)-1H-1,2,3-triazol-4-yl)(6-fluoro-2-methylpyridin-3-yl)methyl)amino)-4-(neopentylamino)quinoline-3,8-dicarbonitrile]",–,–,"IC50 [1, 5]: 0.007 µM; EC50 [2, 6]: 0.121 µM"
"Cn1nnc2cccc([C@H](Nc3cc(Cl)c4ncc(C#N)c(NCC(C)(C)C)c4c3)c3cn(C4(C(F)F)CC4)nn3)c21 [Example 542, (S)-8-chloro-6-(((1-(1-(difluoromethyl)-cyclopropyl)-1H-1,2,3-triazol-4-yl)(1-methyl-1H-benzo[d][1,2,3]triazol-7-yl)methyl)amino)-4-(neopentylamino)-quinoline-3-carbonitrile]",0.002,0.04,–
"CCN1CCC(n2cc(C(Nc3cc(Cl)c4ncc(C#N)c(Nc5ccc(F)c(Cl)c5)c4c3)c3cncnc3)nn2)CC1 (centres unmarked) [Example 366, 8-chloro-4-((3-chloro-4-fluorophenyl)amino)-6-(((1-(1-ethylpiperidin-4-yl)-1H-1,2,3-triazol-4-yl)(pyrimidin-5-yl)methyl)amino)-quinoline-3-carbonitrile]",0.005,0.336,–
"Cc1nc(F)ccc1[C@H](Nc1cc(C#N)c2ncc(C#N)c(NCC(C)(C)C(F)(F)F)c2c1)c1nnn(C23CC(C2)C3)c1F [Example 861, (S)-6-(((1-(bicyclo[1.1.1]pentan-1-yl)-5-fluoro-1H-1,2,3-triazol-4-yl)(6-fluoro-2-methylpyridin-3-yl)methyl)amino)-4-((3,3,3-trifluoro-2,2-dimethylpropyl)amino)quinoline-3,8-dicarbonitrile]",–,–,"IC50 [1, 5]: 0.007 µM; EC50 [2, 6]: 0.04 µM"
"Cc1nc(F)ccc1[C@H](Nc1cc(Cl)c2ncc(C#N)c(NCC(C)(C)C)c2c1)c1cn(CC2(C(F)F)CC2)nn1 [Example 752, (S)-8-chloro-6-(((1-((1-(difluoromethyl)cyclopropyl)-methyl)-1H-1,2,3-triazol-4-yl)(6-fluoro-2-methylpyridin-3-yl)methyl)amino)-4-(neopentylamino)quinoline-3-carbonitrile]",0.005,0.057,–
"Cc1nc(F)ccc1[C@H](Nc1cc(C#N)c2ncc(C#N)c(NCC3(C(F)F)CC3)c2c1)c1cn(C2(C(F)(F)F)CC2)nn1 [Example 638, (S)-4-(((1-(difluoromethyl)-cyclopropyl)methyl)amino)-6-(((6-fluoro-2-methylpyridin-3-yl)(1-(1-(trifluoromethyl)cyclopropyl)-1H-1,2,3-triazol-4-yl)methyl)amino)quinoline-3,8-dicarbonitrile]",0.058,0.858,–
"CC1(C)COCCC1Nc1c(C#N)cnc2c(C#N)cc(N[C@H](c3cn(C4(C(F)(F)F)CC4)nn3)c3cccc4ncsc34)cc12 (stereo partly drawn) [Example 452, 6-(((S)-benzo[d]thiazol-7-yl(1-(1-(trifluoromethyl)cyclopropyl)-1H-1,2,3-triazol-4-yl)methyl)amino)-4-((3,3-dimethyltetrahydro-2H-pyran-4-yl)amino)quinoline-3,8-dicarbonitrile]",0.004,0.073,–
"C[C@@H](CF)n1cc([C@@H](Nc2cc(Cl)c3ncc(C#N)c(Nc4cnc(F)c(F)c4)c3c2)c2cccnc2)nn1 [Example 197, 8-chloro-4-((5,6-difluoropyridin-3-yl)amino)-6-(((S)-(1-((S)-1-fluoropropan-2-yl)-1H-1,2,3-triazol-4-yl)(pyridin-3-yl)methyl)amino)quinoline-3-carbonitrile]",0.009,0.599,–
"Cc1n[nH]c2cccc([C@H](Nc3cc(Cl)c4ncc(C#N)c(NCC(C)(C)C)c4c3)c3cn(C4(C(F)F)CC4)nn3)c12 [Example 556, (S)-8-chloro-6-(((1-(1-(difluoromethyl)cyclo-propyl)-1H-1,2,3-triazol-4-yl)(3-methyl-1H-indazol-4-yl)methyl)amino)-4-(neopentyl-amino)quinoline-3-carbonitrile]",0.008,0.12,–
"Cc1nc(F)ccc1[C@H](Nc1cc(C#N)c2ncc(C#N)c(NCC(C)(C)C)c2c1)c1cn(C2(C3CC3)CC2)nn1 [Example 621, (S)-6-(((1-([1,1′-bi(cyclopropan)]-1-yl)-1H-1,2,3-triazol-4-yl)(6-fluoro-2-methylpyridin-3-yl)methyl)amino)-4-(neopentylamino)quinoline-3,8-dicarbonitrile]",0.001,0.012,–
"Cn1ccc2c([C@H](Nc3cc(Cl)c4ncc(C#N)c(NCC(C)(C)C)c4c3)c3cn(C4CCC4)nn3)cccc2c1=O [Example 796, (S)-8-chloro-6-(((1-cyclobutyl-1H-1,2,3-triazol-4-yl)(2-methyl-1-oxo-1,2-dihydroisoquinolin-5-yl)methyl)amino)-4-(neopentylamino)quinoline-3-carbonitrile]",0.002,0.031,–
"C[C@@H](Nc1c(C#N)cnc2c(Cl)cc(N[C@@H](c3cccnc3)c3cn(C4CCN(C(C)(C)C)CC4)nn3)cc12)c1ccccc1 [Example 259, 6-(((S)-(1-(1-(tert-butyl)piperidin-4-yl)-1H-1,2,3-triazol-4-yl)(pyridin-3-yl)methyl)amino)-8-chloro-4-(((R)-1-phenylethyl)amino)quinoline-3-carbonitrile]",0.006,0.158,–
"Cc1nc(F)ccc1[C@H](Nc1cc(Cl)c2ncc(C#N)c(NCC(C)(C)C)c2c1)c1cn(C2(C(=O)N3CCCC3)CC2)nn1 [Example 554, (S)-8-chloro-6-(((6-fluoro-2-methylpyridin-3-yl)(1-(1-(pyrrolidine-1-carbonyl)cyclopropyl)-1H-1,2,3-triazol-4-yl)methyl)amino)-4-(neopentylamino)quinoline-3-carbonitrile]",0.005,0.151,–
"Cc1nc(F)ccc1[C@H](Nc1cc(C#N)c2ncc(C#N)c(NCC(C)(C)C)c2c1)c1cn([C@@H]2C[C@@H]2F)nn1 [Example 622, 6-(((S)-(6-fluoro-2-methylpyridin-3-yl)(1-((1R,2S)-2-fluorocyclopropyl)-1H-1,2,3-triazol-4-yl)methyl)amino)-4-(neopentylamino)quinoline-3,8-dicarbonitrile]",0.001,0.024,–
"[2H][C@](Nc1cc(Cl)c2ncc(C#N)c(NCC(C)(C)C)c2c1)(c1ccc(F)nc1)c1cn(CC(=O)O)nn1 [Example 85, (S)-2-(4-(((8-chloro-3-cyano-4-(neopentylamino)quinolin-6-yl)amino)(6-fluoropyridin-3-yl)methyl-d)-1H-1,2,3-triazol-1-yl)acetic acid]",0.004,> 1,–
"Cn1ccc2c([C@H](Nc3cc(Cl)c4ncc(C#N)c(NCC(C)(C)C)c4c3)c3cn(C4(C)COC4)nn3)cccc2c1=O [Example 760, (S)-8-chloro-6-(((2-methyl-1-oxo-1,2-dihydroisoquinolin-5-yl)(1-(3-methyloxetan-3-yl)-1H-1,2,3-triazol-4-yl)methyl)amino)-4-(neopentylamino)quinoline-3-carbonitrile]",0.002,0.058,–
"N#Cc1cnc2c(Cl)cc(N[C@@H](c3cscn3)c3cn(Cc4ccccn4)nn3)cc2c1Nc1ccc(F)c(Cl)c1 [Example 316, (S)-8-chloro-4-((3-chloro-4-fluorophenyl)amino)-6-(((1-(pyridin-2-ylmethyl)-1H-1,2,3-triazol-4-yl)(thiazol-4-yl)methyl)amino)quinoline-3-carbonitrile]",0.006,0.298,–
"N#Cc1cnc2c(Cl)cc(N[C@H](c3c[nH]nn3)c3cncs3)cc2c1Nc1ccc(F)c(Cl)c1 [Example 277, (R)-B-chloro-4-((3-chloro-4-fluorophenyl)amino)-6-((thiazol-5-yl(1H-1,2,3-triazol-4-yl)methyl)amino)quinoline-3-carbonitrile]",–,–,"IC50 ([1]; read-out: IC50 HTRF, Cot HTRF (TR-FRET) biochemical assay): 0.007 µM; EC50 ([2]; read-out: EC50 TNF, LPS-stimulated human monocytes, TNFα): 0.923 µM"
"Cn1cnc2cccc([C@H](Nc3cc(Cl)c4ncc(C#N)c(NCC(C)(C)C)c4c3)c3cn(C4(C(F)(F)F)CC4)nn3)c21 [Example 483, (S)-8-chloro-6-(((1-methyl-1H-benzo[d]imidazol-7-yl)(1-(1-(trifluoromethyl)cyclopropyl)-1H-1,2,3-triazol-4-yl)methyl)amino)-4-(neopentylamino)quinoline-3-carbonitrile]",0.007,0.108,–
